From ChEMBL document CHEMBL3885861, “Open TG-GATES”

Species on record: Rattus norvegicus
Assay: Open TG-GATES - Regimen: Daily Repeat
Type: toxicity, organism-based, Sprague-Dawley
Set-up: regimen Daily Repeat, gender Male, age 6 weeks
Conditions: in vivo, po, 0 mg/kg, route gavage, dose level Control; for APTT / Bas / Eos / Fbg / Ht / Lym / MCH / MCHC / MCV / Mono / Neu / PT / Plat / RBC / Ret / WBC: tissue Blood; for KIDNEY_L / KIDNEY_R / KIDNEY_TOTAL: tissue Kidney; for LIVER: tissue Liver; for ALP / ALT / AST / BUN / CRE / Ca / Cl / DBIL / GLC / IP / K / LDH / Na / PL / RALB / TBIL / TC / TG / TP / gamma-GTP: tissue Plasma

Cc1cccc(Nc2cc(Cl)nc(SCC(=O)O)n2)c1C [PIRINIXIC ACID]
TERMINAL_BW (72 h, time 3 day): 233.5 g
APTT (72 h, time 3 day): 16.4 s
Bas (72 h, time 3 day): 0%
Eos (72 h, time 3 day): 1.2%
Fbg (72 h, time 3 day): 285 mg/dL
Ht (72 h, time 3 day): 39.4%
Lym (72 h, time 3 day): 75.2%
MCH (72 h, time 3 day): 22.2 pg
MCHC (72 h, time 3 day): 34.4%
MCV (72 h, time 3 day): 64.7 fL
Mono (72 h, time 3 day): 2.8%
Neu (72 h, time 3 day): 20.2%
PT (72 h, time 3 day): 12.3 s
Plat (72 h, time 3 day): 109.1 x10_4/uL
RBC (72 h, time 3 day): 609.4 x10_4/ul
Ret (72 h, time 3 day): 7%
WBC (72 h, time 3 day): 85.4 x10_2/uL
KIDNEY_L (72 h, time 3 day): 1 g
KIDNEY_R (72 h, time 3 day): 1 g
KIDNEY_TOTAL (72 h, time 3 day): 1.9 g
LIVER (72 h, time 3 day): 10.9 g
ALP (72 h, time 3 day): 1563.4 IU/L
ALT (72 h, time 3 day): 50 IU/L
AST (72 h, time 3 day): 77 IU/L
BUN (72 h, time 3 day): 15.8 mg/dL
CRE (72 h, time 3 day): 0.2 mg/dL
Ca (72 h, time 3 day): 10.8 mg/dL
Cl (72 h, time 3 day): 105.4 meq/L
DBIL (72 h, time 3 day): 0.024 mg/dL
GLC (72 h, time 3 day): 201.2 mg/dL
IP (72 h, time 3 day): 8.2 mg/dL
K (72 h, time 3 day): 3.8 meq/L
LDH (72 h, time 3 day): 80.4 IU/L
Na (72 h, time 3 day): 143 meq/L
PL (72 h, time 3 day): 155 mg/dL
RALB (72 h, time 3 day): 2.6 g/dL
TBIL (72 h, time 3 day): 0.032 mg/dL
TC (72 h, time 3 day): 79.6 mg/dL
TG (72 h, time 3 day): 92.8 mg/dL
TP (72 h, time 3 day): 5.5 g/dL
gamma-GTP (72 h, time 3 day): 1.6 IU/L
TERMINAL_BW ([…], time 7 day): 265.8 g
TERMINAL_BW ([…], time 14 day): 320.3 g
TERMINAL_BW ([…], time 28 day): 387.5 g
APTT ([…], time 7 day): 16.6 s
Bas ([…], time 7 day): 0%
Eos ([…], time 7 day): 0.4%
Fbg ([…], time 7 day): 312.6 mg/dL
Ht ([…], time 7 day): 40.4%
Lym ([…], time 7 day): 83.4%
MCH ([…], time 7 day): 21.7 pg
MCHC ([…], time 7 day): 34.7%
MCV ([…], time 7 day): 62.3 fL
Mono ([…], time 7 day): 2.2%
Neu ([…], time 7 day): 13.8%
PT ([…], time 7 day): 12.3 s
Plat ([…], time 7 day): 127.6 x10_4/uL
RBC ([…], time 7 day): 648.6 x10_4/ul
Ret ([…], time 7 day): 5.5%
WBC ([…], time 7 day): 89.6 x10_2/uL
APTT ([…], time 14 day): 15.5 s
Bas ([…], time 14 day): 0%
Eos ([…], time 14 day): 0.8%
Fbg ([…], time 14 day): 324.2 mg/dL
Ht ([…], time 14 day): 41.1%
Lym ([…], time 14 day): 77.6%
MCH ([…], time 14 day): 20.2 pg
MCHC ([…], time 14 day): 35.2%
MCV ([…], time 14 day): 57.3 fL
Mono ([…], time 14 day): 2.4%
Neu ([…], time 14 day): 18.6%
PT ([…], time 14 day): 12.4 s
Plat ([…], time 14 day): 119.6 x10_4/uL
RBC ([…], time 14 day): 716.8 x10_4/ul
Ret ([…], time 14 day): 4.1%
WBC ([…], time 14 day): 101.8 x10_2/uL
APTT ([…], time 28 day): 17.7 s
Bas ([…], time 28 day): 0%
Eos ([…], time 28 day): 1.2%
Fbg ([…], time 28 day): 284.6 mg/dL
Ht ([…], time 28 day): 44.2%
Lym ([…], time 28 day): 75%
MCH ([…], time 28 day): 19.8 pg
MCHC ([…], time 28 day): 35.6%
MCV ([…], time 28 day): 55.5 fL
Mono ([…], time 28 day): 2.4%
Neu ([…], time 28 day): 20.6%
PT ([…], time 28 day): 12.3 s
Plat ([…], time 28 day): 100.6 x10_4/uL
RBC ([…], time 28 day): 796.8 x10_4/ul
Ret ([…], time 28 day): 2.3%
WBC ([…], time 28 day): 82.2 x10_2/uL
KIDNEY_L ([…], time 7 day): 1.1 g
KIDNEY_R ([…], time 7 day): 1 g
KIDNEY_TOTAL ([…], time 7 day): 2.1 g
KIDNEY_L ([…], time 14 day): 1.2 g
KIDNEY_R ([…], time 14 day): 1.2 g
KIDNEY_TOTAL ([…], time 14 day): 2.5 g
KIDNEY_L ([…], time 28 day): 1.4 g
KIDNEY_R ([…], time 28 day): 1.3 g
KIDNEY_TOTAL ([…], time 28 day): 2.7 g
LIVER ([…], time 7 day): 12.4 g
LIVER ([…], time 14 day): 14.7 g
LIVER ([…], time 28 day): 15.5 g
ALP ([…], time 7 day): 1820.8 IU/L
ALT ([…], time 7 day): 48.8 IU/L
AST ([…], time 7 day): 67.6 IU/L
BUN ([…], time 7 day): 19.4 mg/dL
CRE ([…], time 7 day): 0.2 mg/dL
Ca ([…], time 7 day): 11 mg/dL
Cl ([…], time 7 day): 105 meq/L
DBIL ([…], time 7 day): 0.02 mg/dL
GLC ([…], time 7 day): 205.6 mg/dL
IP ([…], time 7 day): 7.1 mg/dL
K ([…], time 7 day): 4 meq/L
LDH ([…], time 7 day): 80 IU/L
Na ([…], time 7 day): 142.4 meq/L
PL ([…], time 7 day): 164.2 mg/dL
RALB ([…], time 7 day): 2.7 g/dL
TBIL ([…], time 7 day): 0.036 mg/dL
TC ([…], time 7 day): 80.8 mg/dL
TG ([…], time 7 day): 128.4 mg/dL
TP ([…], time 7 day): 5.9 g/dL
gamma-GTP ([…], time 7 day): 1 IU/L
ALP ([…], time 14 day): 1141.6 IU/L
ALT ([…], time 14 day): 41.2 IU/L
AST ([…], time 14 day): 65.8 IU/L
BUN ([…], time 14 day): 16 mg/dL
CRE ([…], time 14 day): 0.2 mg/dL
Ca ([…], time 14 day): 10.6 mg/dL
Cl ([…], time 14 day): 105.2 meq/L
DBIL ([…], time 14 day): 0.016 mg/dL
GLC ([…], time 14 day): 202.4 mg/dL
IP ([…], time 14 day): 7.1 mg/dL
K ([…], time 14 day): 3.8 meq/L
LDH ([…], time 14 day): 78.8 IU/L
Na ([…], time 14 day): 143.4 meq/L
PL ([…], time 14 day): 139.6 mg/dL
RALB ([…], time 14 day): 2.8 g/dL
TBIL ([…], time 14 day): 0.03 mg/dL
TC ([…], time 14 day): 69 mg/dL
TG ([…], time 14 day): 117.4 mg/dL
TP ([…], time 14 day): 6 g/dL
gamma-GTP ([…], time 14 day): 1.2 IU/L
ALP ([…], time 28 day): 955.2 IU/L
ALT ([…], time 28 day): 36.2 IU/L
AST ([…], time 28 day): 59.4 IU/L
BUN ([…], time 28 day): 14 mg/dL
CRE ([…], time 28 day): 0.2 mg/dL
Ca ([…], time 28 day): 10.7 mg/dL
Cl ([…], time 28 day): 106.6 meq/L
DBIL ([…], time 28 day): 0.018 mg/dL
GLC ([…], time 28 day): 199 mg/dL
IP ([…], time 28 day): 6.5 mg/dL
K ([…], time 28 day): 3.5 meq/L
LDH ([…], time 28 day): 48.8 IU/L
Na ([…], time 28 day): 144.2 meq/L
PL ([…], time 28 day): 139.6 mg/dL
RALB ([…], time 28 day): 2.8 g/dL
TBIL ([…], time 28 day): 0.064 mg/dL
TC ([…], time 28 day): 75.8 mg/dL
TG ([…], time 28 day): 90.4 mg/dL
TP ([…], time 28 day): 6.4 g/dL
